This is an account of results in PubChem BioAssay AID588620 (NMMLSC, 2011).

Where “and” joins values, the source holds several entries; their conditions need not be identical. Equal values may be shown once. Calls of active or inactive are those of the source.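 The calls were made as follows: active = fitted half-maximal concentration below 30 µM for cell fluorescence in pump-free yeast, so likely self-fluorescent; inactive = the rest.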

The experiment can be described thus: concentration-dependent intrinsic compound fluorescence, S. cerevisiae AD/pABC3, flow cytometry, Cherry Pick1 hits, artefact control for antifungal efflux pump inhibitor project, dose response (AID 588620).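 Also: red emission of unstained cells excited at 488 nm measured in PE-Texas Red channel; cell median fluorescence as percent of DMSO wells so 100% equals vehicle baseline.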 To be noted: S. cerevisiae AD/pABC3 compound autofluorescence, flow cytometry; at 33.1 µM (top of the series).
Consider `Cc1cc(C(=O)COC(=O)c2ccc[nH]c2=O)c(C)n1-c1ccc(F)cc1`, for which the fluorescence response, % of control is 102% (inactive). In the case of `COc1ccc(-c2nc3ccccc3c(=O)n2CCOc2ccc(C)cc2C)cc1`, the fluorescence response, % of control is 113% (inactive).

For `CCOc1ccc(OCC)c(NS(=O)(=O)c2ccc3c(c2)CCN3C(=O)C2CCC2)c1`, the fluorescence response, % of control was 80.8% (inactive). For `CCO[C@@H]1OC(C(=O)Nc2ccccc2)=C[C@H](c2ccc(Br)cc2)[C@H]1CCCO`, the fluorescence response, % of control was 102% (inactive). Turning to `CC(C)C(O)(C#CCN1CCCCC1)C(C)C`, the fluorescence response, % of control was 111% (inactive). As for `COc1ccc(-c2[nH]c(-c3ccc4c(c3)OCO4)nc2-c2ccccc2)cc1`, the fluorescence response, % of control was 80.8% (inactive).

Consider `Nc1ncc2c(n1)-c1cc(Cl)ccc1SC2`, for which the fluorescence response, % of control is 102% (inactive). As to `COc1cc(CNC(C)(C)CO)cc(Br)c1OCc1ccc(Cl)cc1`, the fluorescence response, % of control was 130% (inactive). For `CC(C)C(=O)N1CCC2(CC1)Oc1ccc(Cl)cc1C(=O)C21CC(c2ccc(Cl)cc2)=NO1` (stereo not drawn), the fluorescence response, % of control was 111% (inactive). As for `C[C@H](CO)N1C[C@H](C)[C@@H](CN(C)S(=O)(=O)c2cccs2)Oc2c(NC(=O)Nc3ccc4c(c3)OCO4)cccc2C1=O`, the fluorescence response, % of control is 96.9% (inactive).

Consider `CCn1ncc(Br)c1C(=O)Nc1sc2c(c1C(=O)OC)CCC2`, for which the fluorescence response, % of control was 117% (inactive). For `COc1cccc(-c2sc3ccc(OC)cc3c2-c2ccc(OCCN3CCCCC3)cc2)c1`, the fluorescence response, % of control is 102% (inactive). With `Cc1ccc(C(=O)N2CCC3(CC2)Oc2ccc(Cl)cc2C(=O)C32CC(c3cccnc3)=NO2)s1` (stereo not drawn), the fluorescence response, % of control was 127% (inactive). In the case of `CC(C)c1ccc(S(=O)(=O)Nc2ccc(O)c(Sc3ncn[nH]3)c2)cc1` it was 151% (inactive); in that of `Cc1ccsc1-c1nc(C(N)=O)c2[nH]c(=O)n(-c3ccc(Cl)cc3)c2n1`, 102% (inactive); in that of `O=C1C(Cl)=C(Nc2ccc3cn[nH]c3c2)C(=O)c2ccccc21`, 145% (inactive). For `COc1ccc2sc(-c3ccccc3OC)c(-c3ccc(OCCN4CCOCC4)cc3)c2c1`, the fluorescence response, % of control was 81.8% (inactive). For the molecule `COc1ccc(/C=C2\SC(=O)N(CCC(=O)Nc3ccccc3)C2=O)cc1OC`, the fluorescence response, % of control is 99.1% (inactive). Next, `Cc1ccc(CN2C(=O)C(CC(C)C)Nc3ncnc(N4CCN(c5ccccc5)CC4)c32)cc1` (stereo not drawn): 102% (inactive). Turning to `CCN(CC)c1ccc(/C=C/c2cc(-c3ccccc3)c3ccccc3n2)cc1`, the fluorescence response, % of control is 406% (inactive). As for `CCC(=O)N1CCC2(CC1)Oc1ccc(Cl)cc1C(=O)C21CC(c2ccc(Cl)cc2)=NO1` (stereo not drawn), the fluorescence response, % of control was 89.8% (inactive). In the case of `COc1ccc(CCC(=O)NNC(=O)Cn2nc(C)cc2C)cc1`, the fluorescence response, % of control was 100% (inactive).

Take `CCOc1ccc(S(=O)(=O)N(C(=O)c2ccco2)c2cc3sc(=O)oc3c3ccccc23)cc1`: the fluorescence response, % of control is 92.2% (inactive). Next, `COC(=O)c1ccc(CN2CCC(Oc3cccc(C(=O)N4CCCC4)c3)CC2)cc1`: 95.7% (inactive).

Take `COc1ccc(-c2sc3ccccc3c2-c2ccc(OCCN(C)C)cc2)cc1`: the fluorescence response, % of control is 112% (inactive). Next, `O=C(c1ccc2c(c1)OCO2)N1CCC2(CC1)Oc1ccc(F)cc1C(=O)C21CC(c2ccc(Cl)cc2)=NO1` (stereo not drawn): 165% (inactive); `CC1(C)Cc2c(cnn2-c2ccc(F)cc2)C(NC(=O)c2cnccn2)C1` (stereo not drawn): 102% (inactive); `O=C(NC1CCCc2c1cnn2-c1ccccc1F)c1ccccn1` (stereo not drawn): 81.2% (inactive). Consider `Cc1ccc(S(=O)(=O)N2CCOCC2)cc1NC(=O)COC(=O)CNC(=O)c1ccccc1`, for which the fluorescence response, % of control is 102% (inactive). Take `O=C(COC(=O)c1ccc(Cl)cc1O)NCCN1C(=O)CSC1=O`: the fluorescence response, % of control is 88.6% (inactive). Next, `COc1cccc(-c2sc3ccc(OC)cc3c2-c2ccc(OCCN(C)C)cc2)c1`: 126% (inactive); `CCOc1ccc(C(=O)Nc2cccc(-c3cc4ccccc4oc3=O)c2)cc1[N+](=O)[O-]`: 94.4% (inactive). On to `CCc1ccc(N=C2NC(=O)/C(=C/c3cc(OC)c(O)c(OC)c3)S2)cc1`, for which the fluorescence response, % of control is 419% (inactive).

In the case of `Cc1ccc(C)c(C(=O)COC(=O)c2ccc(C)c(S(=O)(=O)N3CCOCC3)c2)c1`, the fluorescence response, % of control was 93.5% (inactive). For the molecule `CCCCCCCCCC[N+](C)(C)CC/C=C1/c2ccccc2Sc2ccc(Cl)cc21`, the fluorescence response, % of control was 105% (inactive). On to `COc1ccc(-n2ncc3c2CC(C)(C)CC3NC(=O)c2cn[nH]c2)cc1` (stereo not drawn), for which the fluorescence response, % of control was 110% (inactive). Turning to `COc1ccc(CN2C(=O)C(C)Nc3ncnc(N4CCN(c5ccccc5)CC4)c32)cc1` (stereo not drawn), the fluorescence response, % of control was 106% (inactive). Take `O=C(CCCc1ccccc1)Nc1cccc([N+](=O)[O-])c1`: the fluorescence response, % of control is 86.2% (inactive).

As for `CCCCSC1=N/C(=C/c2ccsc2)C(=O)N1c1ccccc1`, the fluorescence response, % of control is 95.7% (inactive). As for `COc1ccc(S(=O)(=O)N(C)C[C@H]2Oc3c(NC(=O)NC4CCCCC4)cccc3C(=O)N([C@H](C)CO)C[C@@H]2C)cc1`, the fluorescence response, % of control is 119% (inactive). `CC(C)c1ccc(/C=c2\sc3nc(-c4ccncc4)nn3c2=O)cc1`: the fluorescence response, % of control was 82.5% (inactive). As to `Cc1cc(O)c(C(C)C)cc1C1(c2cc(C(C)C)c(O)cc2C)OC(=O)c2ccccc21`, the fluorescence response, % of control was 99.8% (inactive). `C[C@@H]1CN(C(=O)c2cc(COc3cccc(C(F)(F)F)c3)on2)C[C@H](C)O1`: the fluorescence response, % of control is 97.1% (inactive). Regarding `c1cc2c(cc1C1CCCCC1)c1c3n2CCCNC3CCC1` (stereo not drawn), the fluorescence response, % of control is 132% (inactive). Turning to `CC1(C)Cc2c(sc(NC(=O)COc3ccc(Cl)cc3Cl)c2C(N)=O)C(C)(C)N1`, the fluorescence response, % of control was 86% (inactive). `CCc1c(C)nc2cc(-c3cc(OC)cc(OC)c3)nn2c1N1CCN(CCN2CCOCC2)CC1`: the fluorescence response, % of control was 130% (inactive). As to `N#CC(C(=O)NCc1ccccc1)c1nc2ccccc2nc1N1CCCC1` (stereo not drawn), the fluorescence response, % of control is 102% (inactive). Regarding `CCCCOc1ccc(C(=O)NCC(=O)OCC(=O)c2c(N)n(C)c(=O)n(C)c2=O)cc1`, the fluorescence response, % of control is 89% (inactive). In the case of `CC(C)(C)c1cc(C(c2cccnc2)N2CCN(CCO)CC2)cc(C(C)(C)C)c1O` (stereo not drawn) it was 78.8% (inactive); in that of `O=S(=O)(Nc1cc(Sc2ncn[nH]2)c(O)c2ccccc12)c1ccccc1`, 140% (inactive). With `O=C(/C=C/c1ccccc1[N+](=O)[O-])NCCc1ccc(F)cc1`, the fluorescence response, % of control is 90.8% (inactive). In the case of `CCOC(=O)c1c(-c2ccc(-c3ccccc3)cc2)csc1NC(=O)CNCCN(C)C` it was 135% (inactive); in that of `O=C(Cn1c(COc2ccccc2)nc2ccccc21)Nc1cc(Cl)c(Cl)cc1Cl`, 87.6% (inactive). Next, `Cc1ccc(CNC(=O)C(=O)NCC2OCCN2S(=O)(=O)c2ccc(Br)cc2)cc1` (stereo not drawn): 88.1% (inactive). Consider `COc1ccc(/C=N/N=C2/NC(=O)C(CC(=O)O)S2)cc1OCc1ccc(Cl)cc1` (stereo not drawn), for which the fluorescence response, % of control is 91.7% (inactive). In the case of `Cc1c2ccncc2c(C)c2c1[nH]c1ccccc12`, the fluorescence response, % of control is 132% (inactive) and 1000% (inactive).

`O=[N+]([O-])c1cnc2ccc3ccccc3c2c1`: the fluorescence response, % of control was 122% (inactive). In the case of `CCC(Sc1nc2cc(OC)c(OC)cc2c(=O)n1CCc1ccc(OC)c(OC)c1)C(=O)NCCOC` (stereo not drawn) it was 83.6% (inactive); in that of `COc1ccc(-c2sc3cc4c(cc3c2-c2ccc(OCCN3CCCCC3)cc2)OCO4)cc1`, 91.7% (inactive).

Take `COc1cccc(C2CC(c3ccccc3)=NN2S(=O)(=O)c2ccc(C)cc2)c1OC` (stereo not drawn): the fluorescence response, % of control is 108% (inactive). With `C#CC[N+](C)(C)CCCCCCCCCCCC`, the fluorescence response, % of control was 117% (inactive). As to `Cc1ccc2nc(-c3ccccc3)cc(C(=O)N3CCN(S(=O)(=O)c4c(C)noc4C)CC3)c2c1`, the fluorescence response, % of control was 109% (inactive).

In the case of `COCC1CCN(C(=O)c2cc(COc3ccc(OC)c4ccccc34)on2)C1` (stereo not drawn), the fluorescence response, % of control was 82.6% (inactive). For the molecule `CCN1CCN(c2cc(SC(C)C)nc(-c3ccc(OC)cc3)n2)CC1`, the fluorescence response, % of control is 109% (inactive).

`Cc1noc(C)c1C(=O)N1CCC2(CC1)Oc1ccc(F)cc1C(=O)C21CC(c2ccc(Cl)cc2)=NO1` (stereo not drawn): the fluorescence response, % of control was 90.5% (inactive). In the case of `O=C(Nc1ccc(O)cc1C(=O)O)c1ccc(NC(=O)c2ccco2)cc1` it was 92.4% (inactive); in that of `Cc1ccc(O)c(C(=O)c2cnc3c(c2)CN(CCC(C)C)C(=O)N3)c1`, 102% (inactive). In the case of `CCc1ccc(C2=NN(S(C)(=O)=O)C(c3cccs3)C2)cc1` (stereo not drawn), the fluorescence response, % of control is 113% (inactive). Next, `Cc1ccc2sc(N(CCCN(C)C)C(=O)c3ccc(Br)s3)nc2c1C`: 78.2% (inactive); `Cc1ccc(-c2cc(C(=O)Nc3ccc(S(=O)(=O)Nc4onc(C)c4C)cc3)c3ccccc3n2)cc1`: 88.3% (inactive). `O=C(c1ccoc1)N1CCC2(CC1)Oc1ccc(Cl)cc1C(=O)C21CC(c2ccc(Cl)cc2)=NO1` (stereo not drawn): the fluorescence response, % of control was 119% (inactive).

Consider `COc1ccc(-c2ccc3c(c2)S(=O)(=O)c2cccc(C(=O)NC4CCCCC4)c2C3=O)cc1OC`, for which the fluorescence response, % of control is 106% (inactive). `O=C(NCCC1=CCCCC1)C1CCC(CNc2nc(=S)[nH]c3ccccc23)CC1` (stereo not drawn): the fluorescence response, % of control is 108% (inactive).
